Assay results from ChEMBL document CHEMBL1201862, “PubChem BioAssay data set” (2004).
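Compound exposure: 48 hours, 5 concentrations, 96-well plates. GI50 = concentration required for 50% inhibition of growth.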 Active and inactive are the calls of the source. No stated cut-off is given here; in the data, active = GI50 up to about 1.1 µM and inactive = higher.

Assays:
Test in all cases: inhibition of tumour cell growth, NCI panel, 48 h
[1] = tested on: UACC-62
[2] = tested on: SW-620
[3] = tested on: SF-268
[4] = tested on: UO-31
[5] = tested on: COLO 205
[6] = tested on: OVCAR-8
[7] = tested on: HOP-92
[8] = tested on: SK-MEL-28
[9] = tested on: IGROV-1
[10] = tested on: OVCAR-3
[11] = tested on: K562
[12] = tested on: DMS-114
[13] = tested on: M19-MEL
[14] = tested on: KM12
[15] = tested on: NCI-H226
[16] = tested on: OVCAR-4
[17] = tested on: CCRF-CEM
[18] = tested on: MOLT-4
[19] = tested on: HL-60
[20] = tested on: EKVX
[21] = tested on: SF-539
[22] = tested on: KM-20L2
[23] = tested on: SK-MEL-2
[24] = tested on: RXF 393
[25] = tested on: HOP-62
[26] = tested on: NCI-H23
[27] = tested on: TK-10
[28] = tested on: SF-295
[29] = tested on: LXFL 529
[30] = tested on: SNB-19
[31] = tested on: HCC 2998
[32] = tested on: UACC-257
[33] = tested on: HCT-116
[34] = tested on: RPMI-8226
[35] = tested on: SK-MEL-5
[36] = tested on: HT-29
[37] = tested on: SR
[38] = tested on: M14
[39] = tested on: A549
[40] = tested on: ACHN
[41] = tested on: CAKI-1
[42] = tested on: NCI-H460
[43] = tested on: SNB-75
[44] = tested on: A498
[45] = tested on: SK-OV-3
[46] = tested on: U-251
[47] = tested on: XF498
[48] = tested on: HCT-15
[49] = tested on: 786-0
[50] = tested on: Malme-3M
[51] = tested on: SNB-78
[52] = tested on: SN12C
[53] = tested on: NCI-H522
[54] = tested on: OVCAR-5
[55] = tested on: LOX IMVI

Measured: GI50

C/C=C/c1cc(=O)c([C@@H]2OC(=O)c3cc(OC)cc(OC)c32)co1 [VERMISTATIN]
inactive: [1] 25.9 µM | [2] 55.5 µM | [3] 43.5 µM | [4] 24.4 µM | [5] 22 µM | [6] 46.8 µM | [7] 49 µM | [8] 25.3 µM | [9] 37 µM | [10] 20.7 µM | [11] 33.8 µM | [12] 21.7 µM | [13] 35.1 µM | [14] 31.6 µM | [15] 60.4 µM | [16] 54.3 µM | [17] 24.1 µM | [18] 38.6 µM | [19] 27.4 µM | [20] 65.5 µM | [21] 26.7 µM | [22] 67.5 µM | [23] 28.5 µM | [24] 42.2 µM | [25] 53 µM | [26] 29.6 µM | [27] 57.5 µM | [28] 39.5 µM | [29] 24.5 µM | [30] > 100 µM | [31] 26 µM | [32] 29.1 µM | [33] 23.7 µM | [34] 35.4 µM | [35] 50.5 µM | [36] 34.6 µM | [37] 27.6 µM | [38] 58.7 µM | [39] 58.6 µM | [40] 45.3 µM | [41] 42.1 µM | [42] 58.3 µM | [43] 6.49 µM

CC(=O)c1ccc(NC(=O)/C(CC(=O)c2sc(-c3cccnc3)nc2C)=N/NC(N)=O)cc1
42.3 µM: [48]
inactive: [44] 31.5 µM | [1] 52.2 µM | [2] > 100 µM | [3] 38.7 µM | [45] > 100 µM | [4] 50.4 µM | [5] 18.2 µM | [6] 56.5 µM | [46] 68.1 µM | [8] > 100 µM | [9] > 100 µM | [10] > 100 µM | [47] > 100 µM | [11] > 100 µM | [12] > 100 µM | [13] > 100 µM | [14] > 100 µM | [15] 25.9 µM | [16] > 100 µM | [17] 21.6 µM | [18] 19.3 µM | [19] 29.5 µM | [20] 2.71 µM | [21] > 10 µM | [22] > 100 µM | [23] > 100 µM | [25] > 10 µM | [26] > 10 µM | [49] 27.9 µM | [27] > 10 µM | [50] > 100 µM | [28] 41.7 µM | [29] 41.4 µM | [30] 53.6 µM | [51] > 100 µM | [31] > 10 µM | [32] > 10 µM | [52] 51.6 µM | [33] 22.6 µM | [34] 23.5 µM | [35] > 100 µM | [36] > 100 µM | [53] 98.4 µM | [37] 33.1 µM | [38] > 100 µM | [39] 22.5 µM | [54] 45.1 µM | [40] 22.4 µM | [55] > 100 µM | [41] 23.2 µM | [42] 27.1 µM
